18 compounds from patent publication US9828379B2 (priority 2013, dated 2017) can be followed below.

Each structure is given as a SMILES string.

Assay in all cases: In vitro competitive activity-based protein profiling (Table 2, % inhibition at 1 μM)
Type in all cases: biochemical

For one assay, the target named is T1, ABHD6 (Mus musculus, UniProt Q8R2Y0).
T1 sequence (Q8R2Y0 1-336): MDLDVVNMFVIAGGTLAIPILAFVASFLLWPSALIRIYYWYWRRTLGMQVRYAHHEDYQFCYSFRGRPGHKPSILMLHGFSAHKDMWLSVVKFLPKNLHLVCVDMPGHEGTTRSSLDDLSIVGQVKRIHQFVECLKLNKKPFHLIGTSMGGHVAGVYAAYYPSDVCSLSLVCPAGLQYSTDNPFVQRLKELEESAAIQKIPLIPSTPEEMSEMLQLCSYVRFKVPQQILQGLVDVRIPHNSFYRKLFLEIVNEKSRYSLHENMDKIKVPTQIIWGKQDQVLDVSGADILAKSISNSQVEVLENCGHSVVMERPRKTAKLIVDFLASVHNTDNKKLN
The following applies: read-out: % Inhibition at 1 μM ABHD6. The procedure:
(§1) After 30 min, FP—Rh (1.0 μL, 50 μM in DMSO) was added and the mixture was incubated for another 30 min at 37° C. Reactions were quenched with SDS loading buffer (50 μL-4×) and run on SDS-PAGE. Following gel imaging, serine hydrolase activity was determined by measuring fluorescent intensity of gel bands corresponding to MAGL, ABHD6 and FAAH using ImageJ 1.43 u software.
(§2) hMAGL was expressed in HEK293T cells according to previously reported methods (see Niphakis, Long, and Blankman, J. L., et al. (2007) Chem. Biol. 14:1347-1356). Cell lysates were diluted with mock proteomes for use in competitive ABPP experiments.

The target of a further assay is T2, MAGL (Mus musculus, UniProt O35678).
T2 sequence (O35678 1-303): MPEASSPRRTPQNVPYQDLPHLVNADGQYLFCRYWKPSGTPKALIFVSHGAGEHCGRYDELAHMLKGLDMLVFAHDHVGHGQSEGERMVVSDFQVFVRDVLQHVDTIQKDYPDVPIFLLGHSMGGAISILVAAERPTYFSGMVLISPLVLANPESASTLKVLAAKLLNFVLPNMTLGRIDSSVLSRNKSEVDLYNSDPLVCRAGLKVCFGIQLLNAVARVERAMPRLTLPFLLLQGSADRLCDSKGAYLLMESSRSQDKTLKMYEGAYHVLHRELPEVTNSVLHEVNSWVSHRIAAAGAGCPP
The following applies: read-out: % Inhibition at 1 μM MAGL. The protocol: After 30 min, FP—Rh (1.0 μL, 50 μM in DMSO) was added and the mixture was incubated for another 30 min at 37° C. Reactions were quenched with SDS loading buffer (50 μL-4×) and run on SDS-PAGE.
Cell lysates were diluted with mock proteomes for use in competitive ABPP experiments.

The target in the next assay is T3, FAAH (Mus musculus, UniProt O08914).
T3 sequence (O08914 1-579): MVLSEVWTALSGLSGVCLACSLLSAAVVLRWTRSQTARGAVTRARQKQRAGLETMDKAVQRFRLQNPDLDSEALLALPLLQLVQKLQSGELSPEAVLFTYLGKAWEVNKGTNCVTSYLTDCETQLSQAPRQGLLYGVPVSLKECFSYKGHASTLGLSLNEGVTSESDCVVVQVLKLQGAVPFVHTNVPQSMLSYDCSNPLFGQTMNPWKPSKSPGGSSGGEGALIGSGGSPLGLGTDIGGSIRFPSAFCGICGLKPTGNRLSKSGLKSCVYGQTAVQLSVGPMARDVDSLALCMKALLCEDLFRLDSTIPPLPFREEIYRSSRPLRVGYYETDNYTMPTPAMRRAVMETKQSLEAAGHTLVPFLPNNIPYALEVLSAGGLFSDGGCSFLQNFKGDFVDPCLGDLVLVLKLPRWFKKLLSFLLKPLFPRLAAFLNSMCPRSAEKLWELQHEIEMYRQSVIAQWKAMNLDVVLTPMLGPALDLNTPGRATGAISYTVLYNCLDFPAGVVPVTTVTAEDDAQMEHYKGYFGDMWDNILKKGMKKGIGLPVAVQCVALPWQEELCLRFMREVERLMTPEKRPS
The note with it: read-out: % Inhibition at 1 μM FAAH. The procedure: as §1, §2

Turning to `O=C(ON1C(=O)CCC1=O)N1CC2CN(Cc3ccc(C(=O)N4CCCC4)cc3F)CC2C1` (centres unmarked) [Example 167, 2,5-dioxopyrrolidin-1-yl5-(2-fluoro-4-(pyrrolidine-1-carbonyl)benzyl)-hexahydropyrrolo[3,4-c]pyrrole-2(1H)-carboxylate], the inhibition at 1 µM on ABHD6 is less than 25%.

For the compound `CC(=O)N1CCN(c2cc(C(C)C)ccc2CN2CC3CN(C(=O)ON4C(=O)CCC4=O)CC3C2)CC1` (centres unmarked) [Example 99, 2,5-Dioxopyrrolidin-1-yl 5-[[2-(4-acetylpiperazin-1-yl)-4-(propan-2-yl)phenyl]methyl]-octahydropyrrolo[3,4-c]pyrrole-2-carboxylate], the inhibition at 1 µM at MAGL, at FAAH and at ABHD6 was less than 25% each time.

For `Cc1cccc(CN2CC3CN(C(=O)ON4C(=O)CCC4=O)CC3C2)c1N1CCCCC1` (centres unmarked) [Example 105, 2,5-Dioxopyrrolidin-1-yl 5-[[3-methyl-2-(piperidin-1-yl)phenyl]methyl]-octahydropyrrolo[3,4-c]pyrrole-2-carboxylate], the inhibition at 1 µM on MAGL is 25 to 75%; on FAAH, less than 25%; on ABHD6, less than 25%.

As for `CC(C)c1cc(CN2CC3CN(C(=O)ON4C(=O)CCC4=O)CC3C2)n(C2CCOCC2)n1` (centres unmarked) [Example 124, 2,5-Dioxopyrrolidin-1-yl 5-[[1-(oxan-4-yl)-3-(propan-2-yl)-1H-pyrazol-5-yl]methyl]-octahydropyrrolo[3,4-c]pyrrole-2-carboxylate], the inhibition at 1 µM on MAGL is 25 to 75%; on FAAH it was less than 25%; on ABHD6 it was less than 25%.

With `CC(=O)N1CCC(c2nn(C)cc2CN2CC3CN(C(=O)ON4C(=O)CCC4=O)CC3C2)CC1` (centres unmarked) [Example 116, 2,5-Dioxopyrrolidin-1-yl 5-[[3-(1-acetylpiperidin-4-yl)-1-methyl-1H-pyrazol-4-yl]methyl]-octahydropyrrolo[3,4-c]pyrrole-2-carboxylate], the inhibition at 1 µM on MAGL, on FAAH and at ABHD6 was less than 25% in each case.

As to `CCN1CCN(c2c(C)cccc2CN2CC3CN(C(=O)ON4C(=O)CCC4=O)CC3C2)CC1` (centres unmarked) [Example 139, 2,5-dioxopyrrolidin-1-yl 5-[[2-(4-ethylpiperazin-1-yl)-3-methylphenyl]methyl]-octahydropyrrolo[3,4-c]pyrrole-2-carboxylate], the inhibition at 1 µM on MAGL, on FAAH and at ABHD6 was less than 25% each time.

On to `O=C(OC(C(F)(F)F)C(F)(F)F)N1CC2CN(Cc3ccc(F)cc3N3CCOCC3)CC2C1` (centres unmarked) [Example 14, 1,1,1,3,3,3-Hexafluoropropan-2-yl 5-[[4-fluoro-2-(morpholin-4-yl)phenyl]methyl]-octahydropyrrolo[3,4-c]pyrrole-2-carboxylate], for which the inhibition at 1 µM at MAGL is greater than 75%; at FAAH it was 25 to 75%; at ABHD6 it was less than 25%.

As for `CS(=O)(=O)N1CCN(c2cc(Cl)ccc2CN2CC3CN(C(=O)ON4C(=O)CCC4=O)CC3C2)CC1` (centres unmarked) [Example 110, 2,5-Dioxopyrrolidin-1-yl 5-[[4-chloro-2-(4-methanesulfonylpiperazin-1-yl)phenyl]methyl]-octahydropyrrolo[3,4-c]pyrrole-2-carboxylate], the inhibition at 1 µM at MAGL, on FAAH and at ABHD6 was less than 25% in each case.

Take `Cn1nc(-c2ccccc2)cc1CN1CC2CN(C(=O)ON3C(=O)CCC3=O)CC2C1` (centres unmarked) [Example 197, 2,5-dioxopyrrolidin-1-yl 5-((1-methyl-3-phenyl-1H-pyrazol-5-yl)methyl)hexahydropyrrolo[3,4-c]pyrrole-2(1H)-carboxylate]: the inhibition at 1 µM on MAGL, on FAAH and at ABHD6 was less than 25% each time.

Consider `Cc1c(CN2CC3CN(C(=O)ON4C(=O)CCC4=O)CC3C2)cccc1N1CCN(C)CC1` (centres unmarked) [Example 145], for which the inhibition at 1 µM on MAGL, on FAAH and on ABHD6 was less than 25% each time.

Regarding `O=C(ON1C(=O)CCC1=O)N1CC2CN(Cc3ccc(Cl)cc3N3CCn4ncnc4C3)CC2C1` (centres unmarked) [Example 108, 2,5-Dioxopyrrolidin-1-yl 5-(4-chloro-2-(5,6-dihydro-[1,2,4]triazolo[1,5-a]pyrazin-7(8H)-yl)benzyl)-hexahydropyrrolo[3,4-c]pyrrole-2(1H)-carboxylate], the inhibition at 1 µM on MAGL, at FAAH and at ABHD6 was less than 25% each time.

Consider `CCn1cc(CN2CC3CN(C(=O)OC(C(F)(F)F)C(F)(F)F)CC3C2)c(-c2ccc(N3CCOCC3)cc2)n1` (centres unmarked) [Example 68, 1,1,1,3,3,3-Hexafluoropropan-2-yl 5-([1-ethyl-3-[4-(morpholin-4-yl)phenyl]-1H-pyrazol-4-yl]methyl)-octahydropyrrolo[3,4-c]pyrrole-2-carboxylate], for which the inhibition at 1 µM is greater than 75% at MAGL, less than 25% on FAAH and less than 25% on ABHD6.

For `CC(=O)N1CCN(c2ccc(CN3CC4CN(C(=O)ON5C(=O)CCC5=O)CC4C3)c(F)c2)CC1` (centres unmarked) [Example 101, 2,5-Dioxopyrrolidin-1-yl 5-[[4-(4-acetylpiperazin-1-yl)-2-fluorophenyl]methyl]-octahydropyrrolo[3,4-c]pyrrole-2-carboxylate], the inhibition at 1 µM on MAGL, at FAAH and on ABHD6 was less than 25% each time.

`O=C(ON1C(=O)CCC1=O)N1CC2CN(Cc3ccc(Cl)cc3N3CCN4CCC[C@@H]4C3)CC2C1` (stereo partly drawn) [Example 109, 2,5-Dioxopyrrolidin-1-yl 5-(4-chloro-2-((R)-hexahydropyrrolo[1,2-a]pyrazin-2(1H)-yl)benzyl)-hexahydropyrrolo[3,4-c]pyrrole-2(1H)-carboxylate]: the inhibition at 1 µM at MAGL, on FAAH and on ABHD6 was less than 25% throughout.

`CC(=O)N1CCC(c2nn(C(C)C)cc2CN2CC3CN(C(=O)ON4C(=O)CCC4=O)CC3C2)CC1` (centres unmarked) [Example 119, 2,5-Dioxopyrrolidin-1-yl 5-[[3-(1-acetylpiperidin-4-yl)-1-(propan-2-yl)-1H-pyrazol-4-yl]methyl]-octahydropyrrolo[3,4-c]pyrrole-2-carboxylate]: the inhibition at 1 µM at MAGL, on FAAH and at ABHD6 was less than 25% each time.

`Cn1cc(CN2CC3CN(C(=O)OC(C(F)(F)F)C(F)(F)F)CC3C2)c(C2CCN(S(C)(=O)=O)CC2)n1` (centres unmarked) [Example 56, 1,1,1,3,3,3-Hexafluoropropan-2-yl 5-[[3-(1-methanesulfonylpiperidin-4-yl)-1-methyl-1H-pyrazol-4-yl]methyl]-octahydropyrrolo[3,4-c]pyrrole-2-carboxylate]: the inhibition at 1 µM at MAGL is greater than 75%; at FAAH it was less than 25%; at ABHD6 it was less than 25%.

Turning to `O=C(ON1C(=O)CCC1=O)N1CC2CN(Cc3ccc(Cl)cc3N3CCOCC3)CC2C1` (centres unmarked) [Example 93, 2,5-Dioxopyrrolidin-1-yl 5-[[4-chloro-2-(morpholin-4-yl)phenyl]methyl]-octahydropyrrolo[3,4-c]pyrrole-2-carboxylate], the inhibition at 1 µM on MAGL was 25 to 75%; at FAAH it was less than 25%; at ABHD6, 25 to 75%.

With `O=C(ON1C(=O)CCC1=O)N1CC2CN(Cc3ccc(C(=O)N4CCC4)cc3F)CC2C1` (centres unmarked) [Example 168, 2,5-dioxopyrrolidin-1-yl5-(4-(azetidine-1-carbonyl)-2-fluorobenzyl)-hexahydropyrrolo[3,4-c]pyrrole-2(1H)-carboxylate], at ABHD6, the inhibition at 1 µM is less than 25%.
